Results published in patent US20230392123A1, “[…]-ASSEMBLED PEPTIDE HYDROGELS […]” (KATHOLIEKE UNIVERSITEIT LEUVEN, priority 2020, published 2023).
“Also recorded” adds a separate entry of the source.

Tested on: HepG2 cells
Test: Live/dead staining of HepG2 hydrogel spheroids in 384 well plate, high-content imaging
Assay type: cell-based
Conditions: 0.1% Triton X for 15 minutes, after 19 days of culture, toxic control
Experimental: High-throughput assays: HepG2 cells were cultured in 2D in DMEM (Invitrogen Cat #31885)+10% fetal bovine serum (FBS). Cells were detached at passage 12 by 0.05% trypsin and mixed (1×10^7 cells/ml) with Puramatrix™+10% Bovine Collagen I (Gibco, Ref: A10644-01, Auckland, NZ) and 1 ul of the mix was pipetted in each well of a 384 well plate (Greiner microplate, Ref: 787979) to form the HepG2 hydrogel spheroids (one hydrogel spheroid per well). Hydrogel spheroids were maintained in HepG2 medium and the medium change was handled automatically by a robotic platform (NextGenQBio) for 19 days. Live/dead staining (Invitrogen, Ref:3224) was performed on the cell in the spheroids according the manufacturer's instruction. Prior to live/dead staining, a group of the hydrogel spheroids were treated with 0.1% Triton X for 15 minutes as control. Nuclei was stained by Hoechst (1:1000 dilution) for 15 minutes. The plate was imaged by a high-content analysis system (Operetta, PerkinElmer®). […] This experiment highlights the potential of hydrogel spheroids to be used in a high-throughput set up specifically important for drug/compound screening and toxicity studies.

Triton X
live (green)/dead (red) staining of HepG2 cells in hydrogel spheroids: minimal or no green colour; also recorded: cell death
